From ChEMBL document CHEMBL3045180, “Synthesis of novel 4,6-diaryl-2-aminopyrimidines as potential antiplasmodial agents” (Med Chem Res, 2013)
Values after ≈ are worked out from the molar mass of the structure shown.

Tests used:
[1] = test system: Plasmodium falciparum; test: Antiplasmodial activity against chloroquine-sensitive Plasmodium falciparum MRC 20 infected in human red blood cells measured up to 24 hr; type: functional, organism-based; conditions: MRC 20, 24 h
[2] = Haemolytic activity against Homo sapiens (human) RBC at >50 ug/ml up to 24 hr; type: ADME, cell-based; conditions: erythrocyte
[3] = Haemolytic activity against Homo sapiens (human) RBC at >25 ug/ml up to 24 hr; type: ADME, cell-based; conditions: erythrocyte
[4] = Haemolytic activity against Homo sapiens (human) RBC at >12.5 ug/ml up to 24 hr; type: ADME, cell-based; conditions: erythrocyte

IC50 [1] [µg/mL] | Structure (SMILES) | Activity [2] | Activity [3] | Activity [4]
> 25 | COc1cccc(-c2cc(-c3cc(OC)ccc3O)nc(N)n2)c1 | Toxic |  | 
29.3 (≈ 89.5 µM) | COc1ccc(O)c(-c2cc(-c3ccccc3Cl)nc(N)n2)c1 | Toxic |  | 
9.53 (≈ 29.1 µM) | COc1ccc(O)c(-c2cc(-c3cccc(Cl)c3)nc(N)n2)c1 |  | Toxic | 
25.5 (≈ 82 µM) | COc1ccc(O)c(-c2cc(-c3ccc(F)cc3)nc(N)n2)c1 | Toxic |  | 
21.3 (≈ 65.1 µM) | COc1ccc(-c2cc(-c3ccc(Cl)cc3)nc(N)n2)c(O)c1 |  | Toxic | 
1.78 (≈ 5.5 µM) | COc1ccc(-c2cc(-c3ccc(OC)cc3O)nc(N)n2)cc1 |  |  | Toxic
15.2 (≈ 49 µM) | COc1ccc(-c2cc(-c3ccc(F)cc3)nc(N)n2)c(O)c1 | Toxic |  | 
8.71 (≈ 28.3 µM) | COc1ccc(-c2cc(-c3ccc(C)cc3)nc(N)n2)c(O)c1 |  | Toxic | 
18.9 (≈ 46.7 µM) | Nc1nc(-c2ccc(OCc3ccccc3)cc2O)cc(-c2ccccc2Cl)n1 |  | Toxic | 
14.9 (≈ 38.8 µM) | Cc1ccc(-c2cc(-c3ccc(OCc4ccccc4)cc3O)nc(N)n2)cc1 |  | Toxic | 
35.6 (≈ 92.7 µM) | Cc1cccc(-c2cc(-c3ccc(OCc4ccccc4)cc3O)nc(N)n2)c1 |  | Toxic | 
16.7 (≈ 43 µM) | Nc1nc(-c2ccc(F)cc2)cc(-c2ccc(OCc3ccccc3)cc2O)n1 | Toxic |  | 
1.61 (≈ 3.75 µM) | COc1ccc(-c2cc(-c3ccc(OCc4ccccc4)cc3O)nc(N)n2)cc1OC |  |  | Toxic
7.61 (≈ 19.1 µM) | COc1cccc(-c2cc(-c3ccc(OCc4ccccc4)cc3O)nc(N)n2)c1 |  | Toxic | 
5.01 (≈ 12.5 µM) | COc1ccc(-c2cc(-c3ccc(OCc4ccccc4)cc3O)nc(N)n2)cc1 |  | Toxic | 
 | CCN(CC)CCCC(C)Nc1ccnc2cc(Cl)ccc12 (stereo not drawn) [CHLOROQUINE] |  | Toxic | 

Structure (SMILES) | IC50 [1] [µg/mL] | Activity [2] | Activity [3] | Activity [4]
C=C[C@H]1C[N@@]2CC[C@H]1C[C@H]2[C@H](O)c1ccnc2ccc(OC)cc12 [QUININE] | 29 (≈ 89.4 µM) |  | Toxic | 
